The structures appear in SMILES notation.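 48-hour exposure; five concentrations; linearly interpolated endpoints. At the GI50, growth is halved.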 Calls of active or inactive are those of the source. Rule as the data show it: active = GI50 up to about 1.1 µM and inactive = higher.

Some test systems named below: NCI-H226; SK-MEL-28; SNB-75; UACC-62; A498; NCI/ADR-RES; OVCAR-5; Hs-578T; SW-620; SK-MEL-2; MDA-MB-435; SK-OV-3; COLO 205; OVCAR-8; SF-539; NCI-H23; NCI-H522; HCT-15; CAKI-1; PC-3.
Common to all, as to assay: NCI-60 cell line screen, 48 h

Consider `C=C1C(=O)O[C@@H]2/C=C(/C)[C@@H](OC(C)=O)C/C=C(\C)C(O)[C@@H](OC(=O)/C(C)=C\C)C12` (stereo not given in full), for which the GI50 is > 100 µM (inactive) in the experiment on NCI-H226; 18.2 µM (inactive) in the experiment on SK-MEL-28; 79.8 µM (inactive) in the experiment with SNB-75; 26.4 µM (inactive) in the experiment with UACC-62; 51.3 µM (inactive) in the experiment on A498; 32.7 µM (inactive) in the experiment on NCI/ADR-RES. Besides, the GI50 in the experiment on OVCAR-5 was 58.2 µM (inactive); in the experiment on Hs-578T it was 56.2 µM (inactive); in the experiment on SW-620 it was 16.5 µM (inactive); in the experiment with SK-MEL-2, 27.6 µM (inactive); in the experiment with MDA-MB-435 it was 20.4 µM (inactive); in the experiment on SK-OV-3 it was > 100 µM (inactive). The GI50 in the experiment on COLO 205 was 18.1 µM (inactive); in the experiment on OVCAR-8, 26.8 µM (inactive); with SF-539 it was 34.4 µM (inactive); in the experiment with NCI-H23, 41.9 µM (inactive); in the experiment with NCI-H522 it was 13.4 µM (inactive); in the experiment with HCT-15, 16.5 µM. Also, the GI50 is 24.2 µM (inactive) in the experiment on CAKI-1 and 76.2 µM (inactive) in the experiment on PC-3.
Consider `COc1cc(C(c2ccc3c(c2)OCO3)N2C(=O)CCC2C(=O)O)cc(OC)c1OC` (stereo not given), for which the GI50 with NCI-H226, in the experiment on SK-MEL-28, with SNB-75, in the experiment with UACC-62, in the experiment on A498 and in the experiment on NCI/ADR-RES was > 100 µM (inactive) each time. In addition, the GI50 in the experiment on OVCAR-5, with Hs-578T, in the experiment with SW-620, with SK-MEL-2, in the experiment with MDA-MB-435 and with SK-OV-3 was > 100 µM (inactive) each time. The GI50 in the experiment with COLO 205 is > 100 µM (inactive); in the experiment with OVCAR-8, > 100 µM (inactive); in the experiment on SF-539 it was > 100 µM (inactive); with NCI-H23, > 100 µM (inactive); in the experiment on NCI-H522, > 100 µM (inactive); in the experiment with HCT-15, over 100 µM. The GI50 in the experiment on CAKI-1 and in the experiment with PC-3 was > 100 µM (inactive) in each case.
As for `CC1CSC(=S)N1C(=O)N1C(=S)SCC1C` (stereo not given), the GI50 is 26.5 µM (inactive) with NCI-H226; 14.3 µM (inactive) in the experiment with SK-MEL-28; 23.4 µM (inactive) in the experiment with SNB-75; 14.7 µM (inactive) in the experiment with UACC-62; 27.5 µM (inactive) in the experiment with A498; 19.1 µM (inactive) in the experiment with NCI/ADR-RES. Also, the GI50 with OVCAR-5 was 30.3 µM (inactive); in the experiment with Hs-578T, 35.7 µM (inactive); in the experiment with SW-620, 20.4 µM (inactive); with SK-MEL-2 it was 21.3 µM (inactive); in the experiment on MDA-MB-435 it was 17.2 µM (inactive); in the experiment with SK-OV-3, 40.9 µM (inactive). Also, the GI50 in the experiment on COLO 205 is 16.3 µM (inactive); in the experiment on OVCAR-8, 16.7 µM (inactive); in the experiment with SF-539, 19.3 µM (inactive); in the experiment on NCI-H23, 20.3 µM (inactive); in the experiment with NCI-H522, 11.5 µM (inactive); with HCT-15, 16.5 µM. Besides, the GI50 in the experiment with CAKI-1 was 20.4 µM (inactive); with PC-3, 24.7 µM (inactive).
As for `COc1cc([C@@H]2c3cc4c(cc3[C@@H](OC3OC5CO[C@@H](c6cccs6)OC5C(O)C3O)[C@H]3COC(=O)[C@H]23)OCO4)cc(OC)c1O` (stereo not given in full), the GI50 was 0.32 µM (active) in the experiment with NCI-H226; 1.66 µM (inactive) with SK-MEL-28; 0.502 µM (active) with SNB-75; 0.183 µM (active) in the experiment with UACC-62; 0.394 µM (active) with A498; 23.4 µM (inactive) in the experiment on NCI/ADR-RES. Besides, the GI50 with OVCAR-5 is 1.77 µM (inactive); in the experiment on Hs-578T, 0.42 µM (active); in the experiment with SW-620, 0.24 µM (active); with SK-MEL-2, 1.09 µM (active); in the experiment on MDA-MB-435, 1.34 µM (inactive); with SK-OV-3 it was 0.395 µM (active). In addition, the GI50 is 0.527 µM (active) in the experiment with COLO 205; 0.538 µM (active) in the experiment on OVCAR-8; 0.205 µM (active) in the experiment on SF-539; 0.406 µM (active) in the experiment with NCI-H23; 0.482 µM (active) in the experiment with NCI-H522; 1.55 µM in the experiment on HCT-15. Moreover, the GI50 is 0.0733 µM (active) with CAKI-1 and 1.11 µM (active) with PC-3.
`Cc1ccc(-c2n[nH]c(=O)n2N)cc1`: the GI50 was > 100 µM (inactive) in the experiment on NCI-H226; > 100 µM (inactive) in the experiment on SK-MEL-28; 48 µM (inactive) in the experiment with SNB-75; > 100 µM (inactive) in the experiment on UACC-62; > 100 µM (inactive) in the experiment on A498; > 100 µM (inactive) in the experiment with NCI/ADR-RES. Besides, the GI50 in the experiment on OVCAR-5, in the experiment with Hs-578T, in the experiment with SW-620, with SK-MEL-2, in the experiment on MDA-MB-435 and with SK-OV-3 was > 100 µM (inactive) each time. The GI50 with COLO 205 is > 100 µM (inactive); with OVCAR-8, > 100 µM (inactive); in the experiment with SF-539, > 100 µM (inactive); in the experiment with NCI-H23 it was > 100 µM (inactive); in the experiment on NCI-H522 it was > 100 µM (inactive); with HCT-15, over 100 µM. For the same compound, the GI50 with CAKI-1 and in the experiment with PC-3 was > 100 µM (inactive) each time.

Source of the values: ChEMBL document CHEMBL1201862, “PubChem BioAssay data set” (2004).
